Experimental findings from ChEMBL document CHEMBL1126956, “Synthesis and biological evaluation of cholecystokinin analogs in which the Asp-Phe-NH2 moiety has been replaced by a 3-amino-7-phenylheptanoic acid or a 3-amino-6-(phenyloxy)hexanoic acid” (J Med Chem, 1993) are described below.

The term IC50 denotes the concentration that gives 50% inhibition.

Test [1] concerns the target Cholecystokinin receptor type A (Rattus norvegicus) (UniProt P30551). As to the kind of experiment: Inhibition of [125I]BH-CCK- binding to peripheral cholecystokinin type A receptor from rat pancreatic acini.
Test [2] has as its target T1, Gastrin/cholecystokinin type B receptor (Homo sapiens, UniProt P32239).
T1 sequence (P32239 whole entry): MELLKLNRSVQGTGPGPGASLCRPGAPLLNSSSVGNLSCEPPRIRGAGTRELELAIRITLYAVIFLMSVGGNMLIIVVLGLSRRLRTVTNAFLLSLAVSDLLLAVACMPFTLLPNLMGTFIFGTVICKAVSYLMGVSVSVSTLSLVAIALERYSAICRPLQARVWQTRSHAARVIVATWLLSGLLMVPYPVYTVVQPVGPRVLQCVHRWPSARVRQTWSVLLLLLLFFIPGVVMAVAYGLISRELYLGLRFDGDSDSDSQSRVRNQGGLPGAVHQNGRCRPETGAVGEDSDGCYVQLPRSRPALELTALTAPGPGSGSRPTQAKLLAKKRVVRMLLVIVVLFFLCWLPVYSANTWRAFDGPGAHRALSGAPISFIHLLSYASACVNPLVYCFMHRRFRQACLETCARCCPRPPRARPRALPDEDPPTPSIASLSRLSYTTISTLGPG
The experiment in a line: Inhibition of [125I]BH-CCK- binding to cholecystokinin type B receptor from jurkat Tcells. It is filed as cell-based.

The target of test [3] is Gastrin/cholecystokinin type B receptor (Cavia porcellus). The experiment in a line: Inhibition of [125I]BH-CCK- binding to cholecystokinin type B receptor from guinea pig brain membranes.

Molecules are shown by their SMILES. Where a SMILES comes first, the peptide text is derived from it. [ ]: non-standard residue; d: D form. The star is where a group is joined. sY = N[C@@H](Cc1ccc(OS(=O)(=O)O)cc1)C(=O)O; NHPhenethyl = c1ccc(CCN*)cc1; OCH2CH2Ph = c1ccc(CCO*)cc1; Nle = CCCC[C@H](N)C(=O)O; Boc = CC(C)(C)OC(=O)*

As for `CCCC[C@H](NC(=O)[C@H](Cc1ccc(OS(=O)(=O)O)cc1)NC(=O)OC(C)(C)C)C(=O)NCC(=O)N[C@@H](Cc1c[nH]c2ccccc12)C(=O)N[C@@H](CCCC)C(=O)N[C@@H](CC(=O)O)C(=O)OCCc1ccccc1` (Boc-[sY][Nle]GW[Nle]D-OCH2CH2Ph), the IC50 was found to be 3 nM in test [1] and 2 nM in test [2].
For the compound `CCCC[C@H](NC(=O)[C@H](Cc1ccc(OS(=O)(=O)O)cc1)NC(=O)OC(C)(C)C)C(=O)NCC(=O)N[C@@H](Cc1c[nH]c2ccccc12)C(=O)N[C@@H](CCCC)C(=O)N[C@@H](CC(=O)O)C(=O)NCCc1ccccc1` (Boc-[sY][Nle]GW[Nle]D-NHPhenethyl), the results for the IC50 in test [1], in test [3] and in test [2] were 30 nM, 10 nM and 13 nM, respectively.
Consider `CCCC[C@H](NC(=O)[C@@H](Cc1c[nH]c2ccccc12)NC(=O)CNC(=O)[C@H](CCSC)NC(=O)[C@H](Cc1ccc(OS(=O)(=O)O)cc1)NC(=O)OC(C)(C)C)C(=O)N[C@@H](CC(=O)O)C(=O)OCCc1ccccc1`, for which the concentration for half-maximal inhibition (IC50) in test [2] stood at 210 nM. This counts as sub-micromolar.
